For series [1], the system named is T. b. brucei strain Lister 427 (bloodstream form). The series is described as follows: T. b. brucei growth inhibition assay (CellTiter-Glo, 48 h). The format is cell-based, Trypanosoma brucei brucei. As to the method:
The T. b. brucei strain Lister 427 (bloodstream form) parasites were continuously grown in complete HMI-9 medium supplemented with 10% Serum Plus and 10% heat-inactivated fetal bovine serum (FBS). All other parasite strains were cultured as described elsewhere.
For determination of 50% growth inhibition, all compounds were dissolved in DMSO, and 200 nL of threefold serially diluted compounds were added into solid-bottom 384-well white plates (Greiner Bio-One, Kremsmunster, Austria) by an Echo 555 acoustic liquid-handling system. Forty microliters of 10^4 cells/mL of T. b. brucei parasites was added into each well, and the plates were incubated in a 5% CO2 incubator at 37 °C for 48 h. Viability of parasites were determined by measuring intracellular ATP levels, using CellTiter-Glo (CTG) luminescent cell viability reagent (Promega, Madison, Wisconsin WI, USA). The EC50 values were determined by using GraphPad Prism software. Growth inhibition assays for all clinical isolates were carried out as described earlier. All experiments had two technical replicates and three biological replicates. Appropriate statistical tests were used for evaluating significance, and mean ± SEM is represented in the tables.
(ATP-based viability assays read luminescence as a measure of living cells.)

In series [2] the test system is HepG2 (human hepatocellular carcinoma) cells. The series can be described thus: HepG2 cytotoxicity assay (CCK-8, 96 h). It counts as cell-based. The conditions noted are these: mean ± SEM. As to the method:
The HepG2 (human hepatocellular carcinoma) cells were obtained from ATCC (American Type Culture Collection) and grown in RPMI media. Cytotoxicity assay was performed in 384-well format, and 25 µL, approximately 1.6 × 10^4 cells/mL, suspension was added to clear-bottom 384-well Griener plates and incubated in 5% CO2 incubator, at 37 °C for 24 h. Once the cells adhered, 125 nL of threefold serially diluted compounds in DMSO was added. Plates were incubated for 96 h, at 37 °C, in a 5% CO2 incubator. Plates were read for viability by adding 10 µL of CCK-8 reagent (APExBIO) into each well, followed by 3 h incubation and absorbance reading at […], using an Envision plate reader. […] Puromycin was used as a positive control. All experiments had two technical replicates and three biological replicates. Appropriate statistical tests were used for evaluating significance, and mean ± SEM is represented in the tables.

Like-named read-outs stand apart in the source and are kept apart here. A value given as a limit tells only on which side of the number the result lay.

With `Cc1nc(C)c(C(=O)Nc2ccc(F)c(-c3nc4ncc(-c5ccccn5)cn4n3)c2)o1` [GNF6702], the concentration for a half-maximal effect (EC50) (commonly the concentration needed to bring the measured effect to its halfway point) in series [1] (Lister 427 bloodstream form, mean ± SEM, read-out: T. b. brucei EC50) is 70 ± 3 nM; in series [1] (Trypanosoma brucei, read-out: T. b. brucei EC50, Lister 427 bloodstream form, 48 h, mean ± SEM), under 70 nM. In the case of `Cc1nc(C)c(C(=O)Nc2ccc(F)c(-c3nc4ncc(-c5ccccc5)cn4n3)c2)o1` [GNF3849], the “HepG2 CC50” value in series [2] was “cytotoxic”.

These data come from publication PMC7157554, “Anti-Trypanosomal Proteasome Inhibitors Cure Hemolymphatic and Meningoencephalic Murine Infection Models of African Trypanosomiasis” (Tropical Medicine and Infectious Disease, 2020).
